According to publication PMC10126150 (2023):

What was measured:
Assay in all cases: Cy3/quencher fluorescence plate reader
Settings in all cases: 120 mM Na+, 5 mM K+, 1 mM Mg2+, 1 mM Ca2+; 20 mM Tris-HCl, 25 °C; affinity similar to glucose
[1] = system: glu-3 ADS construct (DNA, aptamer, boronic acid-modified U (Z, T in the source) at 5,7,8,12,15,19,24,26 of strand 1 (MS of Bio-NNGmin: seven of eight coupled)) CCCGTGTTAGATAGTAAGTGCAATCTCGGCTTTCTGTCTCTTATACACATCTGACGCTGCCGACGA/TCGTCGGCAGCGTCAGATGTGTATAAGAGACAGTTTTTTTTTTTTTTTTTTTTTTTTTTACCAGGAGCTC
[2] = system: glu-4 ADS construct (DNA, aptamer, boronic acid-modified U (Z, T in the source) at 5,7,8,12,15,19,24,26 of strand 1 (MS of Bio-NNGmin: seven of eight coupled)) CCCGTGTTAGATAGTAAGTGCAATCTCGGCTTTCTGTCTCTTATACACATCTGACGCTGCCGACGA/TCGTCGGCAGCGTCAGATGTGTATAAGAGACAGTTTTTTTTTTTTTTTTTTTTTTTTTACCAGGAGCTTC
[3] = system: glu-1 ADS construct (DNA, aptamer, boronic acid-modified U (Z, T in the source) at 5,7,8,12,15,19,24,26 of strand 1 (MS of Bio-NNGmin: seven of eight coupled)) CCCGTGTTAGATAGTAAGTGCAATCTCGGCTTTCTGTCTCTTATACACATCTGACGCTGCCGACGA/TCGTCGGCAGCGTCAGATGTGTATAAGAGACAGTTTTTTTTTTTTTTTTTTTTTTTTTTAGGGCAGGCTC
[4] = system: glu-2 ADS construct (DNA, aptamer, boronic acid-modified U (Z, T in the source) at 5,7,8,12,15,19,24,26 of strand 1 (MS of Bio-NNGmin: seven of eight coupled)) CCCGTGTTAGATAGTAAGTGCAATCTCGGCTTTCTGTCTCTTATACACATCTGACGCTGCCGACGA/TCGTCGGCAGCGTCAGATGTGTATAAGAGACAGTTTTTTTTTTTTTTTTTTTTTTTTTCAGGACAGGCTC

Measured: binding

OCC1(O)OC[C@@H](O)[C@@H](O)[C@@H]1O (stereo partly shown)
yes: all assays above
